From ChEMBL document CHEMBL4177690, “(E)-3-(3,4,5-Trimethoxyphenyl)-1-(pyridin-4-yl)prop-2-en-1-one, a heterocyclic chalcone is a potent and selective CYP1A1 inhibitor and cancer chemopreventive agent” (Bioorg Med Chem Lett, 2017)

Experiments:
Cytochrome P450 1A1 [1] = molecular target: T1, Cytochrome P450 1A1 (Homo sapiens, UniProt P04798); assay: Inhibition of human CYP1A1 expressed in yeast microsomal membranes using 7-ethoxyresorufin as substrate measured after 10 mins by fluorescence assay; type: cell membranes
T1 sequence (P04798 whole entry): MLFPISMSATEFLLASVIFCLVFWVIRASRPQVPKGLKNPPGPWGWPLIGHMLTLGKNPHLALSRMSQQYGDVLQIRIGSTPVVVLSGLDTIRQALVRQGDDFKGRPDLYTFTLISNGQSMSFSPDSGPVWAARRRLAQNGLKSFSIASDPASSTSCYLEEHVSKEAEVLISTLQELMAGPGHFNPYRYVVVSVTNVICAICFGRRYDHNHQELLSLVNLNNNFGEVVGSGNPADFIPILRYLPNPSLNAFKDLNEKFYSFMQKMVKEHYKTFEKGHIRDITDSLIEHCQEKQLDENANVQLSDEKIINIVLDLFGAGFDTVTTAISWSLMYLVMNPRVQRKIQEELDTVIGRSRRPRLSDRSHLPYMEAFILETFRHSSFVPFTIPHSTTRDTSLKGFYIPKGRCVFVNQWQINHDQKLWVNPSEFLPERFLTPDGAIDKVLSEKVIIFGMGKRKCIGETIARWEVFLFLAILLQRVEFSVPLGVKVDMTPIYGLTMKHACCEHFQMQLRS

Cytochrome P450 1B1 [2] = molecular target: T2, Cytochrome P450 1B1 (Homo sapiens, UniProt Q16678); assay: Inhibition of human CYP1B1 expressed in yeast microsomal membranes using 7-ethoxyresorufin as substrate measured after 10 mins by fluorescence assay; type: cell membranes
T2 sequence (Q16678 whole entry): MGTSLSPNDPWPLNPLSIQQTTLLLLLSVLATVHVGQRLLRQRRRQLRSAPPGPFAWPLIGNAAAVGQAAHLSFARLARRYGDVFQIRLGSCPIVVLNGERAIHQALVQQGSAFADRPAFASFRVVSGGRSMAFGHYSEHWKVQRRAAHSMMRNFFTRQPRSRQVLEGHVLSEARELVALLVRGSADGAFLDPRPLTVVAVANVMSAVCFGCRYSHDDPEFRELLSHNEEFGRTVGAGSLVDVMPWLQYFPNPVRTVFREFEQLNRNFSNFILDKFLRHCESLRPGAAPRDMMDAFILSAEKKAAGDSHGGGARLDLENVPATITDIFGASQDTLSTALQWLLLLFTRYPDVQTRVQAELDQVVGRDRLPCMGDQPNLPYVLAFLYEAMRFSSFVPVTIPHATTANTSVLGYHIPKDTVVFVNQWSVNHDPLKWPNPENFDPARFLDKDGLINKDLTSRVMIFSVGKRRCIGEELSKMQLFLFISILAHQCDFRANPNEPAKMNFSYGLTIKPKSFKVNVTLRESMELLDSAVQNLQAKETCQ

Cytochrome P450 1A2 [3] = molecular target: T3, Cytochrome P450 1A2 (Homo sapiens, UniProt P05177); assay: Inhibition of human CYP1A2 expressed in yeast microsomal membranes using 3-cyano-7-ethoxycoumarin as substrate measured after 10 mins by fluorescence assay; type: ADME, cell membranes, Microsomal Membrane
T3 sequence (P05177 whole entry): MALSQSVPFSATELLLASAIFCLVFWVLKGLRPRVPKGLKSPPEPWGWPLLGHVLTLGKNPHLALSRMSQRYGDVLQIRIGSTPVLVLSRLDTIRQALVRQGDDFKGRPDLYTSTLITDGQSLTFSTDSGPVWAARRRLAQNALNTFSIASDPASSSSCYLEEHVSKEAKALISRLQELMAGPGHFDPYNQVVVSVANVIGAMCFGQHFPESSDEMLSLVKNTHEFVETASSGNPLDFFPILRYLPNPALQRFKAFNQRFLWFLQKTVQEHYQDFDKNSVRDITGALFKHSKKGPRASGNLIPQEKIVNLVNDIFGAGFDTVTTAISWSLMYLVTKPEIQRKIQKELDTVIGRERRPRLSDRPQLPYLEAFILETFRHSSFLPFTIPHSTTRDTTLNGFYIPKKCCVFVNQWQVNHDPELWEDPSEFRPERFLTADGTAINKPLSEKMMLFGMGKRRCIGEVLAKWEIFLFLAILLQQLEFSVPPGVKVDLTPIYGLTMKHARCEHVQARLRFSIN

Cytochrome P450 2D6 [4] = molecular target: T4, Cytochrome P450 2D6 (Homo sapiens, UniProt P10635); assay: Inhibition of human CYP2D6 expressed in yeast microsomal membranes using 7-ethoxy-methyloxy-3-cyanocoumarin as substrate measured after 10 mins by fluorescence assay; type: ADME, cell membranes, Microsomal Membrane
T4 sequence (P10635 whole entry): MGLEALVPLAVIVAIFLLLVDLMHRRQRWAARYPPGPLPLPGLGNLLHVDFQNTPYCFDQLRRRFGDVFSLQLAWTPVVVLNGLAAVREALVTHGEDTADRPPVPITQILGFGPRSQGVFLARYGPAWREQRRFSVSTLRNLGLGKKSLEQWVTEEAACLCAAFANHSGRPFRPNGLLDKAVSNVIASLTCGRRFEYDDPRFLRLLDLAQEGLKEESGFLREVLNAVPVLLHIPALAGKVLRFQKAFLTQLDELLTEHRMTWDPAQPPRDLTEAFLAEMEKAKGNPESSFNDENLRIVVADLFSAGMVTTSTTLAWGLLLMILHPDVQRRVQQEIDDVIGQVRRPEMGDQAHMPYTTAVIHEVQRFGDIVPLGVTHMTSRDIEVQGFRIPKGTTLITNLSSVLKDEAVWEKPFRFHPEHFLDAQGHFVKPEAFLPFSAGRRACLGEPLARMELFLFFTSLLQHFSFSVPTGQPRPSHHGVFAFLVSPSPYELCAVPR

Cytochrome P450 2C9 [5] = molecular target: T5, Cytochrome P450 2C9 (Homo sapiens, UniProt P11712); assay: Inhibition of human CYP2C9 expressed in yeast microsomal membranes using 3-cyano-7-ethoxycoumarin as substrate measured after 10 mins by fluorescence assay; type: ADME, cell membranes, Microsomal Membrane
T5 sequence (P11712 whole entry): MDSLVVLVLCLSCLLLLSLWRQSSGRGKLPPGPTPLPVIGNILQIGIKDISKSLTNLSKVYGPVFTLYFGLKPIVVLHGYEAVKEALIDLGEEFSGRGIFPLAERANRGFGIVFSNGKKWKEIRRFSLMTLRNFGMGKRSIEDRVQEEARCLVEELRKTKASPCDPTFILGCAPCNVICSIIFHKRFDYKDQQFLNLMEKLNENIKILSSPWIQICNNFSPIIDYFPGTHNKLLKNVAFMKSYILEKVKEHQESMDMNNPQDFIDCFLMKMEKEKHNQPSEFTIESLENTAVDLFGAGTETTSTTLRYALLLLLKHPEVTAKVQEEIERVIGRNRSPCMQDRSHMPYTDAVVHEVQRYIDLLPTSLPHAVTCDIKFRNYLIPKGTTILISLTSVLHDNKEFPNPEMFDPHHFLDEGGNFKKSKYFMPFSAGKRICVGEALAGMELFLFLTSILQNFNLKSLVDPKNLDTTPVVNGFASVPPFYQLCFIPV

Cytochrome P450 2C19 [6] = molecular target: T6, Cytochrome P450 2C19 (Homo sapiens, UniProt P33261); assay: Inhibition of human CYP2C19 expressed in yeast microsomal membranes using 3-cyano-7-ethoxycoumarin as substrate measured after 10 mins by fluorescence assay; type: ADME, cell membranes, Microsomal Membrane
T6 sequence (P33261 whole entry): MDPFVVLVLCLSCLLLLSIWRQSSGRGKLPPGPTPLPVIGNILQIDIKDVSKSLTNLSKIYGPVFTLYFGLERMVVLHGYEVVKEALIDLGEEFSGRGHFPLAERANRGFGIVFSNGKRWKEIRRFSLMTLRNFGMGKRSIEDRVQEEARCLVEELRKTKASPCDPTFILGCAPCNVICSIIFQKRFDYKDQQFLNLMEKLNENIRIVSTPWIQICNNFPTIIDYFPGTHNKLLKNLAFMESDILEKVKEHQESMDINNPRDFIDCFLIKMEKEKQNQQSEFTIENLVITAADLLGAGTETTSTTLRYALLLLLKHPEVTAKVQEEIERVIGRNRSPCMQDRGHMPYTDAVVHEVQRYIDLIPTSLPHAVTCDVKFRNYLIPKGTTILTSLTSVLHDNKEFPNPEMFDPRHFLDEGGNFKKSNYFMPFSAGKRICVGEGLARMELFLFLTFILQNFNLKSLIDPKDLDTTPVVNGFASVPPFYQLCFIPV

Cytochrome P450 3A4 [7] = molecular target: T7, Cytochrome P450 3A4 (Homo sapiens, UniProt P08684); assay: Inhibition of human CYP3A4 expressed in yeast microsomal membranes using dibenzylfluorescein as substrate measured after 10 mins by fluorescence assay; type: ADME, cell membranes, Microsomal Membrane
T7 sequence (P08684 whole entry): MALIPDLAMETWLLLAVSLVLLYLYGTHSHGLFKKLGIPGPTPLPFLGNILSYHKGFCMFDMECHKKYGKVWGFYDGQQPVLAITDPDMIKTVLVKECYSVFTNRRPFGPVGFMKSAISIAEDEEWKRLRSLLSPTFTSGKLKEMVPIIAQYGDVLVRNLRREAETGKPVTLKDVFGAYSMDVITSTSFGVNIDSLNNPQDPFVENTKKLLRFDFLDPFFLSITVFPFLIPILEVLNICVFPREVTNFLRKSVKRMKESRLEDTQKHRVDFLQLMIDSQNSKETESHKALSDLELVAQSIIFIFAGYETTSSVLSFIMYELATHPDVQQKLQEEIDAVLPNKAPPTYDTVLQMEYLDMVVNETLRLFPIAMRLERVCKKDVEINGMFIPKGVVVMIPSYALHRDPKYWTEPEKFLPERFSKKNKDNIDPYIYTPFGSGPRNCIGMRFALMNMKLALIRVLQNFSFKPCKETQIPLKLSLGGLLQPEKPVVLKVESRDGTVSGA

Cytochrome P450 1A1 [8] = molecular target: T1, Cytochrome P450 1A1; assay: Inhibition of recombinant human CYP1A1 expressed in HEK293 cells using 7-ethoxyresorufin as substrate pretreated for 30 mins followed by substrate addition measured for 60 mins by fluorescence assay; type: cell-based
Cytochrome P450 1B1 [9] = molecular target: T2, Cytochrome P450 1B1; assay: Inhibition of recombinant human CYP1B1 expressed in HEK293 cells using 7-ethoxyresorufin as substrate pretreated for 30 mins followed by substrate addition measured for 60 mins by fluorescence assay; type: cell-based
Cytochrome P450 1A2 [10] = molecular target: T3, Cytochrome P450 1A2; assay: Inhibition of recombinant human CYP1A2 expressed in HEK293 cells using 3-cyano-7-ethoxycoumarin as substrate pretreated for 30 mins followed by substrate addition measured for 60 mins by fluorescence assay; type: ADME
Cytochrome P450 2D6 [11] = molecular target: T4, Cytochrome P450 2D6; assay: Inhibition of recombinant human CYP2D6 expressed in HEK293 cells using 7-ethoxy-methyloxy-3-cyanocoumarin as substrate pretreated for 30 mins followed by substrate addition measured for 60 mins by fluorescence assay; type: ADME, cell-based
Cytochrome P450 2C9 [12] = molecular target: T5, Cytochrome P450 2C9; assay: Inhibition of recombinant human CYP2C9 expressed in HEK293 cells using 3-cyano-7-ethoxycoumarin as substrate pretreated for 30 mins followed by substrate addition measured for 60 mins by fluorescence assay; type: ADME
Cytochrome P450 2C19 [13] = molecular target: T6, Cytochrome P450 2C19; assay: Inhibition of recombinant human CYP2C19 expressed in HEK293 cells using 3-cyano-7-ethoxycoumarin as substrate pretreated for 30 mins followed by substrate addition measured for 60 mins by fluorescence assay; type: ADME
Cytochrome P450 3A4 [14] = molecular target: T7, Cytochrome P450 3A4; assay: Inhibition of recombinant human CYP3A4 expressed in HEK293 cells using dibenzylfluorescein as substrate pretreated for 30 mins followed by substrate addition measured for 60 mins by fluorescence assay; type: ADME

Row | Compound | IC50 (Cytochrome P450 1A1 [1]) [nM] | IC50 (Cytochrome P450 1B1 [2]) [nM] | IC50 (Cytochrome P450 1A2 [3]) [nM] | IC50 (Cytochrome P450 2D6 [4]) [nM] | IC50 (Cytochrome P450 2C9 [5]) [nM] | IC50 (Cytochrome P450 2C19 [6]) [nM] | IC50 (Cytochrome P450 3A4 [7]) [nM] | IC50 (Cytochrome P450 1A1 [8]) [nM] | IC50 (Cytochrome P450 1B1 [9]) [nM] | IC50 (Cytochrome P450 1A2 [10]) [nM] | IC50 (Cytochrome P450 2D6 [11]) [nM] | IC50 (Cytochrome P450 2C9 [12]) [nM] | IC50 (Cytochrome P450 2C19 [13]) [nM] | IC50 (Cytochrome P450 3A4 [14]) [nM]
1 | O=C(/C=C/c1ccc2c(c1)OCO2)c1ccncc1 | 1120 | 2110 | 1500 | 12000 | > 20000 | > 20000 | > 20000 | 1120 | 3520 | 1500 | > 10000 | > 10000 | > 10000 | > 10000
2 | COc1cc(/C=C/C(=O)c2ccncc2)cc(OC)c1 | 180 | 41 | 28 | 16000 | > 20000 | > 20000 | > 20000 | 220 | 31 | 28 | > 10000 | > 10000 | > 10000 | > 10000
3 | COc1cccc(/C=C/C(=O)c2ccncc2)c1 | 590 | 54 | 20 | 12000 | > 20000 | > 20000 | > 20000 | 620 | 60 | 20 | > 10000 | > 10000 | > 10000 | > 10000
4 | COc1ccc(/C=C/C(=O)c2ccncc2)cc1OC | 380 | 170 | 120 | 8000 | > 20000 | > 20000 | > 20000 | 420 | 230 | 120 | > 10000 | > 10000 | > 10000 | > 10000
5 | O=C(/C=C/c1cccc2ccccc12)c1ccncc1 | 510 | 650 | 35 | 18000 | > 20000 | > 20000 | > 20000 | 550 | 750 | 28 | > 10000 | > 10000 | > 10000 | > 10000
